From PubChem BioAssay (NCI) come the findings set out here.

Among the test systems are SW-620 colon; A498 renal; NCI-H522 lung; SK-OV-3 ovarian; SK-MEL-2 melanoma; HT29 colon; UO-31 renal; SF-539 CNS; NCI-H460 lung; OVCAR-3 ovarian; IGROV1 ovarian; OVCAR-8 ovarian; NCI/ADR-RES ovarian; KM12 colon; SNB-75 CNS; M14 melanoma; HCT-15 colon; SK-MEL-28 melanoma; CCRF-CEM leukemia.
Experiment in all cases: DTP human tumour cell line panel, 48 h

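Cultured in 96-well plates, cells were exposed to test compound for 48 hours across five concentrations. TGI: concentration producing complete growth inhibition.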

Turning to `CCN(CC)C(=S)SC(C(=O)Nc1nnc(-c2ccccc2)o1)c1ccccc1` (stereo unspecified), the TGI (in general, the concentration at which net growth stops) in the assay with SW-620 colon is over 100 µM; in the assay on A498 renal, 40.7 µM; with NCI-H522 lung it was 49.2 µM; with SK-OV-3 ovarian, over 100 µM; in the assay with SK-MEL-2 melanoma, 46.7 µM; in the assay with HT29 colon, 41.8 µM. In addition, the TGI in the assay with UO-31 renal was 23.9 µM; with SF-539 CNS, 65.9 µM; in the assay with NCI-H460 lung, 31.6 µM; in the assay with OVCAR-3 ovarian, 41.8 µM; with IGROV1 ovarian, over 100 µM; in the assay with OVCAR-8 ovarian it was over 100 µM. The concentration for total growth inhibition (TGI) with NCI/ADR-RES ovarian was 41.1 µM; in the assay with KM12 colon, 62.7 µM; in the assay on SNB-75 CNS, over 100 µM; in the assay with M14 melanoma, 42 µM; with HCT-15 colon it was 24.5 µM; with SK-MEL-28 melanoma it was 54.6 µM.

With `CCOC(OCC)N1C(=O)C2(C(OCC)OCC)CC3C(OC(=O)N3N)c3cccc1c32` (stereo unspecified), the TGI in the assay with SW-620 colon, with A498 renal, with SK-OV-3 ovarian, with HT29 colon, in the assay with UO-31 renal and with SF-539 CNS was over 100 µM in each case. Moreover, the TGI with NCI-H460 lung, in the assay on OVCAR-3 ovarian, in the assay with CCRF-CEM leukemia, in the assay on IGROV1 ovarian, with OVCAR-8 ovarian and in the assay on NCI/ADR-RES ovarian was over 100 µM in each case. Also, the TGI with KM12 colon, in the assay on HCT-15 colon and with SK-MEL-28 melanoma was over 100 µM throughout.

Regarding `CCOC(=O)c1cc(Br)c(-c2cc(C)no2)[nH]1`, the TGI was over 100 µM with SW-620 colon; 75.6 µM in the assay on A498 renal; 78.9 µM in the assay on NCI-H522 lung; over 100 µM in the assay with SK-OV-3 ovarian; over 100 µM with SK-MEL-2 melanoma; over 100 µM with HT29 colon. Further, the TGI was over 100 µM with UO-31 renal; over 100 µM with SF-539 CNS; 55 µM in the assay with NCI-H460 lung; 95.1 µM with OVCAR-3 ovarian; over 100 µM in the assay with OVCAR-8 ovarian; over 100 µM in the assay on NCI/ADR-RES ovarian. The TGI is 24.7 µM in the assay on KM12 colon; over 100 µM in the assay with SNB-75 CNS; over 100 µM with M14 melanoma; over 100 µM in the assay with HCT-15 colon; over 100 µM with SK-MEL-28 melanoma.

Turning to `c1ccc(C(=NCCC2CNc3ccccc32)c2ccccc2)cc1` (stereo unspecified), the total growth inhibition concentration (TGI) with SW-620 colon, with A498 renal, in the assay with NCI-H522 lung, in the assay with SK-OV-3 ovarian, in the assay on SK-MEL-2 melanoma and in the assay with HT29 colon was over 100 µM throughout. In addition, the TGI with UO-31 renal, in the assay on NCI-H460 lung, in the assay on OVCAR-3 ovarian, with CCRF-CEM leukemia, with IGROV1 ovarian and in the assay with OVCAR-8 ovarian was over 100 µM each time. Further, the TGI in the assay with NCI/ADR-RES ovarian, with KM12 colon, in the assay with M14 melanoma, with HCT-15 colon and with SK-MEL-28 melanoma was over 100 µM throughout.

In the case of `N#CC(C#N)N=Nc1ccc(-c2nc3ccccc3o2)cc1`, the TGI in the assay with SW-620 colon was 28.1 µM; in the assay with A498 renal it was 31.2 µM; with NCI-H522 lung it was 73.7 µM; in the assay on SK-OV-3 ovarian, 43.7 µM; in the assay with SK-MEL-2 melanoma, 31.4 µM; in the assay on HT29 colon, 27.8 µM. The TGI is 26 µM in the assay with UO-31 renal; 26.1 µM with SF-539 CNS; 30.4 µM in the assay with NCI-H460 lung; 9.77 µM in the assay with OVCAR-3 ovarian; 93.2 µM with IGROV1 ovarian; over 100 µM in the assay on OVCAR-8 ovarian. The total growth inhibition concentration (TGI) in the assay on NCI/ADR-RES ovarian stood at 62.9 µM; with KM12 colon, 50.5 µM; in the assay with SNB-75 CNS it was 66.5 µM; with M14 melanoma, 31.2 µM; with HCT-15 colon, 38.5 µM; in the assay on SK-MEL-28 melanoma, 32.3 µM.

For the compound `O=C(N/N=C/c1ccc([N+](=O)[O-])cc1)Nc1ccc(Br)cc1`, the TGI with SW-620 colon, in the assay on NCI-H522 lung, in the assay with SK-OV-3 ovarian, with SK-MEL-2 melanoma, in the assay with HT29 colon and in the assay on UO-31 renal was over 100 µM throughout. For the same compound, the TGI in the assay with SF-539 CNS is over 100 µM; in the assay on NCI-H460 lung it was over 100 µM; in the assay with OVCAR-3 ovarian it was over 100 µM; in the assay with CCRF-CEM leukemia, 84.5 µM; with IGROV1 ovarian, over 100 µM; with OVCAR-8 ovarian, over 100 µM. Also, the TGI with NCI/ADR-RES ovarian, in the assay with KM12 colon, with SNB-75 CNS, with M14 melanoma, in the assay on HCT-15 colon and in the assay on SK-MEL-28 melanoma was over 100 µM throughout.

In the case of `CC(=O)n1cc(OP(=O)(Oc2ccccc2)Oc2ccccc2)c2ccccc21`, the TGI with SW-620 colon was over 100 µM; with A498 renal, over 100 µM; with SK-MEL-2 melanoma, 77 µM; with HT29 colon it was over 100 µM; in the assay on UO-31 renal, over 100 µM; in the assay on SF-539 CNS it was 42.5 µM. Moreover, the TGI with NCI-H460 lung was 50.8 µM; in the assay with OVCAR-3 ovarian, 93.6 µM; with CCRF-CEM leukemia, 50.4 µM; in the assay with IGROV1 ovarian it was over 100 µM; in the assay with OVCAR-8 ovarian, over 100 µM; with NCI/ADR-RES ovarian it was 44.3 µM. In addition, the TGI in the assay with KM12 colon was over 100 µM; with M14 melanoma, 52.1 µM; in the assay on HCT-15 colon it was over 100 µM; in the assay on SK-MEL-28 melanoma it was 86 µM.

With `CCCCCCCCCCCCCCCCOP(=O)(O)OCC(NC(C)=O)C(=O)O` (stereo unspecified), the TGI with SW-620 colon, in the assay on A498 renal, in the assay with NCI-H522 lung, in the assay with SK-OV-3 ovarian, in the assay with SK-MEL-2 melanoma and with HT29 colon was over 100 µM in each case. Besides, the TGI in the assay with UO-31 renal was over 100 µM; in the assay on SF-539 CNS, over 100 µM; in the assay on NCI-H460 lung, over 100 µM; in the assay with OVCAR-3 ovarian, over 100 µM; with IGROV1 ovarian, 62.2 µM; in the assay on OVCAR-8 ovarian, over 100 µM. Moreover, the TGI in the assay on NCI/ADR-RES ovarian is over 100 µM; with SNB-75 CNS, 98.2 µM; in the assay with M14 melanoma, over 100 µM; in the assay on HCT-15 colon, 34.3 µM; in the assay on SK-MEL-28 melanoma, over 100 µM.
